Source: patent US20150140015A1, “METHODS AND PHARMACEUTICAL COMPOSITIONS FOR THE TREATMENT OF PANCREATIC CANCER” (INSERM (Institut National de la Sante et de la Recherche …, priority 2013, published 2015)

Columns and labels:
[1] = tested on: HEK stably expressing OX1R (HEK-OX1R); assay: Cell growth of HEK-OX1R cells (cell counting); assay type: cell-based; details: 0.1 μM, 48 h
Description: The development of antibodies directed against OX1R were produced by a phage display strategy and the antibody selection was performed by using HEK and HEK stably expressing OX1R (HEK-OX1R) cell lines. […] Cells were incubated with 0.1 μM of OxB or antibodies for 48 h in culture medium and then cells were counted in order to estimate the cellular growth. […] We have tested the ability of antibodies to inhibit the cellular growth in cancer cell lines derived from and pancreas cancer (AsPC-1 cells).

AsPC-1 cells [2] = assay: Cell growth of AsPC-1 cells (cell counting); assay type: cell-based, human; details: 0.1 μM, 48 h; AsPC-1 cells (FIG. 9)
Description: FIG. 9. Effect of Orexin-B anti-OX1R antibodies on cell growth of AsPC-1 cells. Cells were incubated with 0.1 μM of OxB or antibodies for 48 h in culture medium and then cells were counted in order to estimate the cellular growth.
The aims of this study were: 1/ to investigate the presence of OX1R in human PAC cell lines and to analyze orexin-A effects in relation to apoptosis; 2/ to develop an in vivo heterotopic xenograft model from the cell lines expressing OX1R, for the study of tumor growth in response to Orexin-A. The expression of OX1R was studied at mRNA (RT-PCR), proteins (immunocytochemistry) and functional levels in 3 PAC cell lines (AsPC-1, HPAF-II and SW1990). The development of an animal model (heterotopic xenograft) from the cell line expressing OX1R, has allowed studying the effect of Orexin-A in tumor growth. Resected tumors were analyzed by immunohistochemistry. Only AsPC-1 cell line expresses OX1R.
The development of antibodies directed against OX1R were produced by a phage display strategy and the antibody selection was performed by using HEK and HEK stably expressing OX1R (HEK-OX1R) cell lines. […] Cells were incubated with 0.1 μM of OxB or antibodies for 48 h in culture medium and then cells were counted in order to estimate the cellular growth. […]

[3] = tested on: HPAF-II cells expressing recombinant OX1R; assay: Quantification of apoptotic cells by annexin V-PE labeling in recombinant OX1R/HPAF-II cells; assay type: cell-based, human; details: OX1R-expressing HPAF-II cells; NSC-87877 50 μM with 1 μM orexin-A
Description: FIGS. 5A and B. Effect of orexin-A on apoptosis in OX1R expressing recombinant OX1R/HPAF-II cells. A, Parental HPAF-II and recombinant OX1R/HPAF-II cells were challenged with (black bars) or without (white bars) 1 μM orexin-A for 48 hr in the absence or presence of the SHP-2 protein tyrosine phosphatase inhibitor, NSC-87877 (50 μM). Apoptosis was measured by determination of annexin V-PE binding. Results are expressed as the percentage of apoptotic cells, and are the means±SE of three separate experiments. ***p<0.001; ns, non-significant; B, paraformaldehyde-fixed HPAF-II cells and recombinant OX1R/HPAF-II cells were challenged with or without (Basal) 1 μM orexin-A for 48 hr. Indirect immunostaining of activated caspase-3 in parental HPAF-II cells (left panels) and recombinant OX1R/HPAF-II cells (right panels) in the presence (bottom panels) or tabsence (top panels) of orexin-A is illustrated in B. […]
AsPC-1, SW 1990, HPAF-II and HPAF-II/hOX1R cells (seeded at 5×10^4 cells/well) were grown in 24-well plates for 24 hr under the culture conditions described above. […] Results are expressed as the percentage of apoptotic phycoerythrin-labelled Annexin V (Annexin V-PE) positive cells and are the means of 3 independent analyses.

parental HPAF-II cells = assay: Quantification of apoptotic cells by annexin V-PE labeling in parental HPAF-II cells; assay type: cell-based, human; details: parental HPAF-II cells; NSC-87877 50 μM
Description: FIGS. 5A and B. Effect of orexin-A on apoptosis in OX1R expressing recombinant OX1R/HPAF-II cells. A, Parental HPAF-II and recombinant OX1R/HPAF-II cells were challenged with (black bars) or without (white bars) 1 μM orexin-A for 48 hr in the absence or presence of the SHP-2 protein tyrosine phosphatase inhibitor, NSC-87877 (50 μM). Apoptosis was measured by determination of annexin V-PE binding. Results are expressed as the percentage of apoptotic cells, and are the means±SE of three separate experiments. ***p<0.001; ns, non-significant; B, paraformaldehyde-fixed HPAF-II cells and recombinant OX1R/HPAF-II cells were challenged with or without (Basal) 1 μM orexin-A for 48 hr. Indirect immunostaining of activated caspase-3 in parental HPAF-II cells (left panels) and recombinant OX1R/HPAF-II cells (right panels) in the presence (bottom panels) or tabsence (top panels) of orexin-A is illustrated in B.
(§1) AsPC-1, SW 1990, HPAF-II and HPAF-II/hOX1R cells (seeded at 5×10^4 cells/well) were grown in 24-well plates for 24 hr under the culture conditions described above. The culture medium was then replaced every 24 hr with fresh medium with or without orexin-A (GL Biochemicals) at a concentration of 1 μM in the presence or absence of the SHP-2 inhibitor, NSC-87877 (50 μM) (Calbiochem, VWR International SAS, France). At the end of the treatment (48 hr), apoptotic cells were determined using the Guava Nexin™ kit (Guava Technologies, Hayward, Calif., USA), which discriminates between apoptotic and non-apoptotic cells (Rouet-Benzineb P, Rouyer-Fessard C, Jarry A, et al. Orexins Acting at Native OX1 Receptor in Colon Cancer and Neuroblastoma Cells or at Recombinant OX1 Receptor Suppress Cell Growth by Inducing Apoptosis. J Biol Chem 2004; 279:45875-86), analyzed with the Guava Personal Cell Analysis (PCA) system (Merck-Millipore, Guyancourt, France), and counted (2,000 events) (Voisin et al, 2008, as above). Results are expressed as the percentage of apoptotic phycoerythrin-labelled Annexin V (Annexin V-PE) positive cells and are the means of 3 independent analyses.

AsPC-1 cells [4] = assay: Quantification of apoptotic cells by annexin V-PE labeling in AsPC-1 cells; assay type: cell-based, human; details: 48 hr; for effect of SHP-2 inhibitor on orexin-induced apoptosis: AsPC-1 cells, NSC-87877 50 μM with 1 μM orexin-A
Description: FIG. 4A-C. Effect of orexin-A on apoptosis in AsPC-1 cells. A, SHP-2 protein tyrosine phosphatase inhibitor, NSC-87877, blocks orexin-induced apoptosis. AsPC-1 cells were challenged with (black bars) or without (white bars) 1 μM orexin-A for 48 hr in the absence or presence of NSC-87877 (50 μM). Apoptosis was measured by determination of annexin V-PE binding, and results are expressed as the percentage of apoptotic cells; B and C: Indirect immunostaining of activated caspase-3 in AsPC-1 cells in the presence or absence of orexin-A. Paraformaldehyde-fixed AsPC-1 cells were challenged with (orexin-A) or without (basal) 1 μM orexin-A for 48 hr. Activated caspase-3 immunostaining is shown in B and scored in C. Results are means±SE of three separate experiments. ***p<0.001; ns, non-significant.
as §1

Compound: orexin-B: 28 amino acid hypothalamic neuropeptide, SEQ ID NO:3
- reduction of HEK-OX1R cell number [1]: 40±3%
- inhibition of cell growth (AsPC-1 cells [2]): able to inhibit the cell growth

Compound: O=S(=O)(O)c1ccc2cc(N=Nc3cc(S(=O)(=O)O)c4cccnc4c3O)ccc2c1 [NSC-87877]
- effect of SHP-2 inhibitor on orexin-A-induced apoptosis [3]: totally abolished
- effect of SHP-2 inhibitor on apoptosis (parental HPAF-II cells): no effect
- effect of SHP-2 inhibitor on orexin-induced apoptosis (AsPC-1 cells [4]): reverse orexin-induced apoptosis
- effect of SHP-2 inhibitor on orexin-induced apoptosis (AsPC-1 cells [4]; listed as NSC 87877): totally abolished
- percentage of apoptotic cells (annexin V-PE) (AsPC-1 cells [4]; NSC 87877 (50 μM) in the absence of orexin-A): 4.6%±0.9
- percentage of apoptotic cells (annexin V-PE) (AsPC-1 cells [4]; NSC 87877 (50 μM) in the presence of 1 μM orexin-A): 4.8%±0.5
